Among the data in patent US10975077B2 (Novira Therapeutics, Inc., priority 2016, dated 2021) are EC50 values, retold here.

Usually EC50 stands for the concentration at which the effect is half-maximal.

The first experiment concerns HBV (encapsidated HBV DNA, HepG2.2.15 cells). In words: HBV replication inhibition assay, BDNA assay in HepG2.2.15 cells. It counts as cell-based. Particulars: Activity in BDNA-assay. The essentials: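 Encapsidated HBV DNA in DNase-treated, proteinase K-lysed supernatant was measured by branched DNA after 6 days' compound exposure, refreshed on day 3, of HepG2.2.15 cells in 0.5% DMSO. Signals normalized to DMSO-treated wells; EC50 from nonlinear regression of inhibition against log concentration.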
Turning to `C=CC(O)C1CN(C)C(=O)c2c3c(nn2C1)CC(C)N(C(=O)Nc1ccc(F)c(Br)c1)C3` [Compound 124_D2, (3R,8S*)—N-(3-bromo-4-fluorophenyl)-8-((S*)-1-hydroxyallyl)-3,10-dimethyl-11-oxo-1,3,4,7,8,9,10,11-octahydro-2H-pyrido[4′,3′:3,4]pyrazolo[1,5-a][1,4]diazepine-2-carboxamide], the EC50 fell in the range of 1 to 100 nM.

The same experiment, now with this note: Hepatitis B virus, HepG2.2.15, Activity in BDNA-assay.
Regarding `CN1CC2(CC(O)C2)Cn2nc3c(c2C1=O)CN(C(=O)Nc1ccc(F)c(Cl)c1)CC3` (stereo not shown) [Compound 132, N-(3-chloro-4-fluorophenyl)-3-hydroxy-10′-methyl-11′-oxo-1′,3′,4′,9′,10′,11′-hexahydro-2′H,7′H-spiro[cyclobutane-1,8′-pyrido[4′,3′:3,4]pyrazolo [1,5-a][1,4]diazepine]-2′-carboxamide], the EC50 lay in the range of 1 to 100 nM.

With `C[C@@H]1Cc2nn3c(c2CN1C(=O)Nc1ccc(F)c(C#N)c1)C(=O)N(C)C[C@@H](COCC(F)F)C3` [Compound 134_D1, (3R,8R)—N-(3-Cyano-4-fluorophenyl)-8-((2,2-difluoroethoxy)methyl)-3,10-dimethyl-11-oxo-1,3,4,7,8,9,10,11-octahydro-2H-pyrido[4′,3′:3,4]pyrazolo[1,5-a][1,4]diazepine-2-carboxamide], the EC50 was in the range of 1 to 100 nM.

With `C[C@@H]1Cc2nn3c(c2CN1C(=O)Nc1ccc(F)c(C(F)(F)F)c1)C(=O)N(C)C[C@@H](COCC(F)F)C3` [Compound 135_D1, (3R,8R)-8-((2,2-difluoroethoxy)methyl)-N-(4-fluoro-3-(trifluoromethyl)phenyl)-3,10-dimethyl-11-oxo-1,3,4,7,8,9,10,11-octahydro-2H-pyrido[4′,3′:3,4]pyrazolo[1,5-a][1,4]diazepine-2-carboxamide], the EC50 was in the range of 1 to 100 nM.

With `C[C@@H]1Cc2nn3c(c2CN1C(=O)Nc1ccc(F)c(C(F)(F)F)c1)C(=O)N(C)C[C@H](COCC(F)F)C3` [Compound 135_D2, (3R,8S)-8-((2,2-difluoroethoxy)methyl)-N-(4-fluoro-3-(trifluoromethyl)phenyl)-3,10-dimethyl-11-oxo-1,3,4,7,8,9,10,11-octahydro-2H-pyrido[4′,3′:3,4]pyrazolo[1,5-a][1,4]diazepine-2-carboxamide], the EC50 lay within 1 to 100 nM.

As to `C[C@@H]1Cc2nn3c(c2CN1C(=O)Nc1ccc(F)c(C#N)c1)C(=O)N(C)CC(F)(F)C3` [Compound 136, (R)—N-(3-cyano-4-fluorophenyl)-8,8-difluoro-3,10-dimethyl-11-oxo-1,3,4,7,8,9,10,11-octahydro-2H-pyrido[4′,3′:3,4]pyrazolo[1,5-a][1,4]diazepine-2-carboxamide], the EC50 was 1 to 100 nM.

`C[C@@H]1Cc2nn3c(c2CN1C(=O)Nc1ccc(F)c(C#N)c1)C(=O)N(C)CC(C)(C)C3` [Compound 139, (R)-N-(3-cyano-4-fluorophenyl)-3,8,8,10-tetramethyl-11-oxo-1,3,4,7,8,9,10,11-octahydro-2H-pyrido[4′,3′:3,4]pyrazolo[1,5-a][1,4]diazepine-2-carboxamide]: the EC50 fell in the range of 1 to 100 nM.

In the case of `C[C@@H]1Cc2nn3c(c2CN1C(=O)Nc1ccc(F)c(C(F)(F)F)c1)C(=O)N(C)CC(C)(C)C3` [Compound 140, (R)-N-(4-Fluoro-3-(trifluoromethyl)phenyl)-3,8,8,10-tetramethyl-11-oxo-1,3,4,7,8,9,10,11-octahydro-2H-pyrido[4′,3′:3,4]pyrazolo[1,5-a][1,4]diazepine-2-carboxamide], the EC50 lay in the range of 1 to 100 nM.

`C[C@@H]1Cc2nn3c(c2CN1C(=O)Nc1ccc(F)c(C#N)c1)C(=O)N(C)CC1(CC(O)C1)C3` (stereo partly drawn) [Compound 141, (R)-N-(3-Cyano-4-fluorophenyl)-3-hydroxy-3′,10′-dimethyl-11′-oxo-1′,3′,4′,9′,10′,11′-hexahydro-2′H,7′H-spiro[cyclobutane-1,8′-pyrido[4′,3′:3,4]pyrazolo[1,5-a][1,4]diazepine]-2′-carboxamide]: the EC50 lay within 1 to 100 nM.

Regarding `C[C@@H]1Cc2nn3c(c2CN1C(=O)Nc1ccc(F)c(C#N)c1)C(=O)N(C)CC1(CC(F)C1)C3` (stereo partly drawn) [Compound 142, (R)-N-(3-Cyano-4-fluorophenyl)-3-fluoro-3′,10′-dimethyl-11′-oxo-1′,3′,4′,9′,10′,11′-hexahydro-2′H,7′H-spiro[cyclobutane-1,8′-pyrido[4′,3′:3,4]pyrazolo[1,5-a][1,4]diazepine]-2′-carboxamide], the EC50 is 1 to 100 nM.

For `C[C@@H]1Cc2nn3c(c2CN1C(=O)Nc1ccc(F)c(C#N)c1)C(=O)N(C)CC1(C3)CC(F)(F)C1` [Compound 143, (R)-N-(3-Cyano-4-fluorophenyl)-3,3-difluoro-3′,10′-dimethyl-11′-oxo-1′,3′,4′,9′,10′,11′-hexahydro-2′H,7′H-spiro[cyclobutane-1,8′-pyrido[4′,3′:3,4]pyrazolo[1,5-a][1,4]diazepine]-2′-carboxamide], the EC50 lay in the range of 1 to 100 nM.

As for `C[C@@H]1Cc2nn3c(c2CN1C(=O)Nc1ccc(F)c(C#N)c1)C(=O)N(C)[C@H](CF)C3` [Compound 149, (3R,8S)-N-(3-cyano-4-fluorophenyl)-8-(fluoromethyl)-3,9-dimethyl-10-oxo-3,4,7,8,9,10-hexahydropyrido[4′,3′:3,4]pyrazolo[1,5-a]pyrazine-2(1H)-carboxamide], the EC50 lay within 1 to 100 nM.

As to `C[C@@H]1Cc2nn3c(c2CN1C(=O)Nc1ccc(F)c(C#N)c1)C(=O)N(C)[C@H](COCC(F)F)C3` [Compound 150, (3R,8S)-N-(3-cyano-4-fluorophenyl)-8-((2,2-difluoroethoxy)methyl)-3,9-dimethyl-10-oxo-3,4,7,8,9,10-hexahydropyrido[4′,3′:3,4]pyrazolo[1,5-a]pyrazine-2(1H)-carboxamide], the EC50 lay in the range of 1 to 100 nM.
